Consider one compound from US7560105B1, “Dendritic cells activated in the presence of glucocorticoid hormones are capable of suppressing antigen-specific T cell responses” (Leids Universitair Medisch Centrum, priority 1999, dated 2009).

The subject of test [1] is human monocyte-derived DC. Description: DC surface phenotype by flow cytometry after CD40 ligation. It is filed as cell-based. Particulars: DEX titration, data not shown. The procedure: Immature DC were generated from peripheral blood monocyte precursors (PBMC). Human PBMC from healthy donors, isolated through Ficoll-Hypaque density centrifugation were plated at 1.5×10^7 per well in 6-well plates (Costar Corp., Cambridge, Mass.) in RPMI 1640 (Life Technologies, Paisley, Scotland) supplemented with 2 mM glutamine, 100 UI/ml penicillin and 10% FCS. After 2 h at 37° C., the nonadherent cells were removed and the adherent cells were cultured in medium containing 500 U/ml IL-4 (Pepro Tech Inc. Rocky Hill, N.J.) and 800 U/ml GM-CSF (kindly provided by Dr S. Osanto, LUMC, Leiden, NL) for a total of 7 days.
Activation of DC though CD40 was performed with a fusion protein made of the extracellular domain of human CD40L and of the murine CD8a chain (CD 8-CD40L). The CD8-CD40L cDNA described by Garrone et al. (23) was transferred into an eukaryotic expression vector containing the hygromycin resistance gene and used for the generation of stably transfected Chinese Hamster Ovary (CHO) cells. […] DC were incubated at 5×10^5/ml/well in a 24-well plate (Costar Corp., Cambridge, Mass.) and activated in the presence of 1/10 CD8-CD40L supernatant. Cells and supernatants were analyzed after 48 h. […]
Cells were stained on ice with FITC or PE-conjugated mouse monoclonal antibodies (MoAb) for 30 min in PBS 1% FCS and were analyzed on a FACScan® (Becton Dickinson, San Jose, Calif.). […]
(Flow cytometry measures light scatter and fluorescence of single cells or particles in a stream.)

In test [2] the test system is human monocyte-derived DC. Description: Cytokine detection by ELISA in DC culture supernatants. It counts as cell-based. The settings on record: CD40 triggering of DEX-treated DC vs untreated. The procedure: Data are representative from 6 independent experiments.
Activation of DC though CD40 was performed with a fusion protein made of the extracellular domain of human CD40L and of the murine CD8a chain (CD 8-CD40L). The CD8-CD40L cDNA described by Garrone et al. (23) was transferred into an eukaryotic expression vector containing the hygromycin resistance gene and used for the generation of stably transfected Chinese Hamster Ovary (CHO) cells. […] DC were incubated at 5×10^5/ml/well in a 24-well plate (Costar Corp., Cambridge, Mass.) and activated in the presence of 1/10 CD8-CD40L supernatant. Cells and supernatants were analyzed after 48 h. Of note, control supernatants obtained from untransfected CHO cells or from CHO cells transfected with the CD8a cDNA lacked DC activating functions and were similar to culture medium.
Culture supernatants were analyzed in serial two-fold dilutions in duplicate. IL-12p70 was detected using a solid phase sandwich ELISA kit (Diaclone Research, Besancon, France) (sensitivity 3 pg/ml). For IL-12p40 and IFN-g detection, capture MoAb and polyclonal biotinylated detection Ab were obtained from Peter van de Meijde (BPRC, Rijswijk, NL) (sensitivity 10 pg/ml). IL-10 was detected using the Pelikine compact human IL-10 ELISA kit (CLB, Amsterdam, NL) (sensitivity 3 pg/ml).
A general note: In an ELISA, binding on a coated surface is turned into a signal by an enzyme label.

As to `C[C@@H]1C[C@H]2[C@@H]3CCC4=CC(=O)C=C[C@]4(C)[C@@]3(F)[C@@H](O)C[C@]2(C)[C@@]1(O)C(=O)CO` [DEX, dexamethasone], the CD40-mediated phenotypic changes entry in test [1] (10^-9 M) and in test [1] (10^-10) was “no effect” each time. Further, the “enhancement of IL-10 production” value in test [2] is given as “up to 50 fold”. Also, the “reduction of IL-12p40 production” value in test [2] is recorded as “up to 100 fold”.
